This note sets out measurements from patent US20130165368A1, “ANTIMICROBIAL COMPOUNDS” (priority 2010, published 2013).

SMILES strings stand for the structures. ≈ marks a conversion by molar mass, not a printed value. Where two headings read alike, the source gives them in different places. Where only a bound is given, the exact number is not on record here.

What all share (assay type): cell-based
For assay [1], the system named is Staphylococcus aureus (MRSA). Nature of the assay: MIC agar dilution, micro-organism 12 (11939). As to conditions: Staphylococcus aureus (MRSA) 11939, read-out: MIC. The essentials:
(§1)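 Twofold dilutions of compound emulsions in water were set in Isosensitest agar with Brazier's CCEY medium, egg yolk and lysed horse blood. Spots of 1 µL from 0.5 McFarland suspensions diluted 1/15 were incubated aerobically at 37 °C and read at 22 and 48 h. MIC (mmol/L) was the lowest concentration giving <10 colonies.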
In general terms: In agar dilution, organisms are placed on agar that contains the substance at set levels.

The next assay concerns Candida albicans. Nature of the assay: MIC agar dilution, micro-organism 19 (90028). As to conditions: Candida albicans 90028, read-out: MIC. The essentials:
as §1

Assay [2] deals with Enterococcus faecium (VRE) 12185 Clin waste. Nature of the assay: MIC agar dilution, VRE strain 24. On the procedure:
(§2) Molar equivalent concentrations were used to allow comparison between compounds of differing molecular mass. Due to weighing difficulties, any compound in solid form was melted in a water bath prior to dilution. To make ten-times strength concentrations, which takes into account agar dilution, 0.0352 mmol of each compound was weighed into plastic universal bottles and 4 mL of sterile distilled water (SDW) was added. To produce a homogenous emulsion the universals were vortexed; once achieved the emulsions were serial diluted by adding 2 mL to 2 mL of SDW.
(§3) For every 100 mL of Isosensitest agar (IST) (CM0471; Oxoid, Basingstoke, England), 3.1 g of the IST powder was added to 100 mL SDW (as per manufacturer's instructions) and sterilised for 15 minutes at 121° C. Once sterilised, the molten agar was cooled to 50° C. in a water-bath. Subsequently 4.8 g of CCEY powder (BC2160; Bioconnections, Wetherby, England), also known as Brazier's medium, was added to 100 mL SDW for every 100 mL of agar needed. This was then sterilised for 15 minutes at 121° C. Once sterilised the molten agar was cooled to 50° C. in a water-bath and 4 mL of egg-yolk emulsion (S2073; TCS Biosciences Ltd, Buckingham, United Kingdom) and 1 mL of lysed defibrinated horse blood (HB035; TCS Biosciences Ltd, Buckingham, United Kingdom) were also added for every 100 mL needed. Horse blood lysis is achieved by dilution to half concentration with SDW; when fully lysed the mixture will turn dark red in colour.
(§4) 18 mL agar was added to each universal and then poured into sterile Petri dishes. This step creates a 1/10 dilution resulting in agar plates of the required strength. Control plates for each set of strains were created by adding 18 mL of agar to 2 mL of SDW.
(§5) Suspensions of each bacterial species were prepared with a density equal to that of a 0.5 McFarland standard using a densitometer. All suspensions were made using sterile distilled water and fresh 18-20 hour cultures. As a 0.5 McFarland standard contains 1.5×10^8 CFU/mL and the multipoint inoculators applies 1 μL spots of liquid, each bacterial suspension was diluted 1/15 (20 μL suspension to 280 μL sterile distilled water).
(§6) Bacterial suspensions were prepared from fresh 18-24 hour cultures as previously described. 1 μL of each strain was inoculated onto all 100 agar plates containing a different chemical concentration and the 2 control plates. This was done using a multipoint inoculator which inoculates 20 strains per plate. All plates were incubated for 22 hours at 37° C. in aerobic conditions.
(§7) Each plate was examined for bacterial growth after 22 and 48 hours, with each being incubated in between examinations. A positive result was recorded as growth of ≧10 colonies. A negative result was recorded as growth of <10 colonies as this is equivalent to 99.9% inhibition. The lowest concentration of chemical that inhibited growth was recorded as the MIC. The results are recorded in Table IV below, where the numbers are quoted in mmol/L.
(§8) Given the positive performance of the ethoxylates of lauryl alcohol in reducing the MIC for a number of the micro-organisms tested, further MIC testing of Laureth-1 [C12E1] through to Laureth-8 [C12E8] was conducted on each of the following: • 10 strains of vancomycin-resistant enterococci (VRE)—listed in Table V below; and • 20 strains of methicillin-resistant Staphylococcus aureus (MRSA)—listed in Table VI.
(§9) The alkanol, alkanol derivatives, agar plates, and inocula were all prepared in the same way as described above.
(§10) The plates were examined in the same manner as described above and the results are recorded in Table VII below, where the numbers are quoted in mmol/L.

For assay [3], the system named is Enterococcus faecium (VRE) MB 3137. Nature of the assay: MIC agar dilution, VRE strain 26. The protocol: as §2, §3, §4, §5, §6, §7, §8, §9, §10
Assay [4] concerns Enterococcus faecalis (VRE) MB 1969. Nature of the assay: MIC agar dilution, VRE strain 27. The protocol: as §2, §3, §4, §5, §6, §7, §8, §9, §10
For assay [5], the system named is Enterococcus faecium (VRE) NCTC 12952. Nature of the assay: MIC agar dilution, VRE strain 30. The protocol:
as §2, §3, §4, §5, §6, §7, §8, §9, §10

A further assay concerns MRSA FIN 54518 (E7). Nature of the assay: MIC agar dilution, MRSA strain 31. As to conditions: Staphylococcus aureus. The protocol: as §2, §3, §4, §5, §6, §7, §8, §9, §10
Assay [6] has as its system MRSA GER 131/98 (Sger Iidc). Nature of the assay: MIC agar dilution, MRSA strain 35. Conditions: Staphylococcus aureus. The protocol: as §2, §3, §4, §5, §6, §7, §8, §9, §10
The test system of the next assay is MRSA EMRSA 15 19972/98. Nature of the assay: MIC agar dilution, MRSA strain 39. Conditions: Staphylococcus aureus. The protocol: as §2, §3, §4, §5, §6, §7, §8, §9, §10
The subject of another assay is MRSA EMRSA 15 21698/98. Nature of the assay: MIC agar dilution, MRSA strain 41. Conditions: Staphylococcus aureus. The protocol:
as §2, §3, §4, §5, §6, §7, §8, §9, §10

A further assay concerns MRSA EMRSA 15 1758/98. Nature of the assay: MIC agar dilution, MRSA strain 43. Conditions: Staphylococcus aureus. The protocol:
as §2, §3, §4, §5, §6, §7, §8, §9, §10

In the next assay the test system is MRSA EMRSA 16 03732/95. Nature of the assay: MIC agar dilution, MRSA strain 45. Conditions: Staphylococcus aureus. On the procedure:
as §2, §3, §4, §5, §6, §7, §8, §9, §10

For another assay, the system named is MRSA NCTC 11939. Nature of the assay: MIC agar dilution, MRSA strain 50. Conditions: Staphylococcus aureus, MRSA strain 50 NCTC 11939. On the procedure: as §2, §3, §4, §5, §6, §7, §8, §9, §10
The mark [7] stands for this setting: Staphylococcus aureus, MRSA, 22 h, 22 hrs.
Setting [8] is: Staphylococcus aureus, MRSA, 48 h, 48 hrs.

With `CCCCCCCCCCCCCCCCO` [C0, 1-Hexadecanol, reference compound], the MIC (in assay [1] (setting [7]); in [1] (setting [8]); in the assay on Candida albicans (22 hrs); with Candida albicans (48 hrs)) was above 880 µM in each case.
As to `CCCCCCCCCCCCOCCO` [L1, Ethylene Glycol Monododecyl Ether], the MIC – broadly, the least concentration at which growth counts as inhibited – in assay [1] (setting [7]) is 440 µM (≈ 101 µg/mL); in assay [1] (setting [8]), 440 µM (≈ 101 µg/mL); in the assay with Candida albicans (22 hrs), 440 µM (≈ 101 µg/mL); in the assay with Candida albicans (48 hrs) it was 440 µM (≈ 101 µg/mL); in assay [2] (22 hrs) it was 880 µM (≈ 203 µg/mL); in assay [2] (48 hrs), 880 µM (≈ 203 µg/mL). Moreover, the minimum inhibitory concentration (MIC) amounted to 440 µM (≈ 101 µg/mL) in assay [3] (22 hrs); 440 µM (≈ 101 µg/mL) in assay [3] (48 hrs); 220 µM (≈ 50.7 µg/mL) in assay [4] (22 hrs); 220 µM (≈ 50.7 µg/mL) in [4] (48 hrs); 220 µM (≈ 50.7 µg/mL) in assay [5] (22 hrs); 220 µM (≈ 50.7 µg/mL) in assay [5] (48 hrs). For the same compound, the MIC with MRSA FIN 54518 (E7) (22 hrs) came to 220 µM (≈ 50.7 µg/mL); against MRSA FIN 54518 (E7) (48 hrs) it was 440 µM (≈ 101 µg/mL); in [6] (22 hrs), 220 µM (≈ 50.7 µg/mL); in assay [6] (48 hrs) it was 220 µM (≈ 50.7 µg/mL); with MRSA EMRSA 15 19972/98 (22 hrs) it was 220 µM (≈ 50.7 µg/mL); in the assay on MRSA EMRSA 15 19972/98 (48 hrs), 220 µM (≈ 50.7 µg/mL). The minimal inhibitory concentration (MIC) in the assay with MRSA EMRSA 15 21698/98 (22 hrs), in the assay on MRSA EMRSA 15 21698/98 (48 hrs), with MRSA EMRSA 15 1758/98 (22 hrs), with MRSA EMRSA 15 1758/98 (48 hrs), against MRSA EMRSA 16 03732/95 (22 hrs) and with MRSA EMRSA 16 03732/95 (48 hrs) was 220 µM (≈ 50.7 µg/mL) in each case. Besides, the MIC in the assay on MRSA NCTC 11939 (22 hrs) and in the assay with MRSA NCTC 11939 (48 hrs) was 220 µM (≈ 50.7 µg/mL) in each case.
Regarding `CCCCCCCCCCCCOCCOCCOCCOCCO` [L4, Tetraethylene Glycol Monododecyl Ether], the MIC in assay [1] (setting [7]) was 110 µM (≈ 39.9 µg/mL); in assay [1] (setting [8]), 110 µM (≈ 39.9 µg/mL); with Candida albicans (22 hrs), 440 µM (≈ 160 µg/mL); in the assay with Candida albicans (48 hrs), 220 µM (≈ 79.8 µg/mL); in assay [2] (22 hrs), 220 µM (≈ 79.8 µg/mL); in [2] (48 hrs) it was 440 µM (≈ 160 µg/mL). The MIC was 880 µM (≈ 319 µg/mL) in [3] (22 hrs); above 880 µM in [3] (48 hrs); 220 µM (≈ 79.8 µg/mL) in assay [4] (22 hrs); 220 µM (≈ 79.8 µg/mL) in assay [4] (48 hrs); 440 µM (≈ 160 µg/mL) in assay [5] (22 hrs); 440 µM (≈ 160 µg/mL) in assay [5] (48 hrs). The MIC with MRSA FIN 54518 (E7) (22 hrs) worked out at 220 µM (≈ 79.8 µg/mL); in the assay on MRSA FIN 54518 (E7) (48 hrs) it was 440 µM (≈ 160 µg/mL); in [6] (22 hrs), 110 µM (≈ 39.9 µg/mL); in [6] (48 hrs), 110 µM (≈ 39.9 µg/mL); with MRSA EMRSA 15 19972/98 (22 hrs) it was 55 µM (≈ 19.9 µg/mL); against MRSA EMRSA 15 19972/98 (48 hrs) it was 55 µM (≈ 19.9 µg/mL). For the same compound, the MIC against MRSA EMRSA 15 21698/98 (22 hrs) is 55 µM (≈ 19.9 µg/mL); with MRSA EMRSA 15 21698/98 (48 hrs), 55 µM (≈ 19.9 µg/mL); against MRSA EMRSA 15 1758/98 (22 hrs), 55 µM (≈ 19.9 µg/mL); against MRSA EMRSA 15 1758/98 (48 hrs), 55 µM (≈ 19.9 µg/mL); with MRSA EMRSA 16 03732/95 (22 hrs) it was 110 µM (≈ 39.9 µg/mL); against MRSA EMRSA 16 03732/95 (48 hrs), 110 µM (≈ 39.9 µg/mL). Also, the MIC against MRSA NCTC 11939 (22 hrs) and against MRSA NCTC 11939 (48 hrs) was 55 µM (≈ 19.9 µg/mL) in each case.
For `CCCCCCCCCCCCOCCOCCOCCOCCOCCOCCOCCO` [L7, Heptaethylene Glycol Monododecyl Ether], the minimal inhibitory concentration (MIC) in [1] (22 hrs) was 220 µM (≈ 109 µg/mL); in [1] (48 hrs) it was 220 µM (≈ 109 µg/mL); in the assay on Candida albicans (22 hrs) it was above 880 µM; in the assay on Candida albicans (48 hrs), above 880 µM; in assay [2] (22 hrs), above 880 µM; in assay [2] (48 hrs), above 880 µM. Further, the MIC in assay [3] (22 hrs), in [3] (48 hrs), in assay [4] (22 hrs), in assay [4] (48 hrs), in [5] (22 hrs) and in assay [5] (48 hrs) was above 880 µM throughout. Moreover, the MIC in the assay on MRSA FIN 54518 (E7) (22 hrs) was above 440 µM; in the assay on MRSA FIN 54518 (E7) (48 hrs), above 440 µM; in assay [6] (22 hrs) it was 110 µM (≈ 54.4 µg/mL); in [6] (48 hrs), 220 µM (≈ 109 µg/mL); in the assay with MRSA EMRSA 15 19972/98 (22 hrs), above 440 µM; against MRSA EMRSA 15 19972/98 (48 hrs) it was above 440 µM. Moreover, the MIC against MRSA EMRSA 15 21698/98 (22 hrs) was 440 µM (≈ 218 µg/mL); in the assay with MRSA EMRSA 15 21698/98 (48 hrs), above 440 µM; with MRSA EMRSA 15 1758/98 (22 hrs) it was 220 µM (≈ 109 µg/mL); with MRSA EMRSA 15 1758/98 (48 hrs), 220 µM (≈ 109 µg/mL); with MRSA EMRSA 16 03732/95 (22 hrs) it was above 440 µM; against MRSA EMRSA 16 03732/95 (48 hrs), above 440 µM. Also, the minimal inhibitory concentration (MIC) against MRSA NCTC 11939 (22 hrs) and against MRSA NCTC 11939 (48 hrs) was 110 µM (≈ 54.4 µg/mL) in each case.
